Measurements from ChEMBL document CHEMBL1141732, “Croton ruizianus: platelet proaggregating activity of two new pregnane glycosides” (J Nat Prod, 1998).

How the values were obtained:
[1] = system: Platelet; assay: Induction of human washed-platelet aggregation at 85 ug/test tube after 1 min by light transmission aggregometer; assay type: functional
[2] = system: Platelet; assay: Induction of human washed-platelet aggregation at 20 ug/test tube after 4 mins by light transmission aggregometer; assay type: functional
[3] = Cytotoxicity against human washed-platelet assessed as LDH release after 5 mins by sonication method; assay type: cell-based
[4] = system: Platelet; assay: Induction of human washed-platelet aggregation at 85 ug/test tube after 4 mins by light transmission aggregometer; assay type: functional
[5] = system: Platelet; assay: Induction of human washed-platelet aggregation at 20 ug/test tube after 1 min by light transmission aggregometer; assay type: functional
[6] = system: Platelet; assay: Induction of human washed-platelet aggregation at 82 ug/test tube after 1 min by light transmission aggregometer; assay type: functional
[7] = system: Platelet; assay: Induction of human washed-platelet aggregation at 82 ug/test tube after 4 mins by light transmission aggregometer; assay type: functional
[8] = system: Platelet; assay: Induction of human washed-platelet aggregation at 232 ug/test tube after 1 min by light transmission aggregometer; assay type: functional
[9] = system: Platelet; assay: Induction of human washed-platelet aggregation at 232 ug/test tube after 4 mins by light transmission aggregometer; assay type: functional
[10] = system: Platelet; assay: Induction of human washed-platelet aggregation at 273 ug/test tube after 1 min by light transmission aggregometer; assay type: functional
[11] = system: Platelet; assay: Induction of human washed-platelet aggregation at 273 ug/test tube after 4 mins by light transmission aggregometer; assay type: functional

**Q.** Which Activity [1] does the source give for `COC1=C[C@]23CCN(C)[C@H](Cc4cc(OC)c(OC)cc42)C3=CC1=O` [O-METHYLFLAVINANTINE] here?
**A.** The Activity was 3.1%.

**Q.** And the Activity [2]?
**A.** The Activity was 0%.

**Q.** And the Activity [3]?
**A.** The Activity was “<= 3.8%”.

**Q.** And the Activity [4]?
**A.** Its Activity is 8.8%.

**Q.** What about the Activity [5] of the same molecule?
**A.** The Activity was 0%.

**Q.** Which Activity [6] does the source give for `COC1=C[C@]23CCN(C)[C@H](Cc4cc(OC)c(O)cc42)C3=CC1=O` [FLAVINANTINE] here?
**A.** Its Activity is 6.3%.

**Q.** What about the Activity [2] of the same molecule?
**A.** The Activity was 3.5%.

**Q.** And the Activity [3]?
**A.** Its Activity is “<= 3.8%”.

**Q.** What about the Activity [7] of the same molecule?
**A.** The Activity was 17.5%.

**Q.** What about the Activity [5] of the same molecule?
**A.** The Activity was 2.1%.

**Q.** Which Activity [2] does the source give for `CO[C@@H]1[C@@H](O)[C@H](O[C@H]2CC[C@@]3(C)[C@@H](CC[C@@H]4[C@@H]3CC[C@]3(C)[C@@H](C(C)=O)[C@H](O)[C@@H](O)[C@]43O)C2)O[C@H](C)[C@H]1O[C@@H]1C[C@@H](O)[C@@H](O[C@@H]2C[C@H](OC)[C@@H](O[C@H]3C[C@@H](OC)[C@H](O)[C@@H](C)O3)[C@H](C)O2)[C@H](C)O1` here?
**A.** The Activity was 12.5%.

**Q.** And the Activity [3]?
**A.** Its Activity is “<= 3.8%”.

**Q.** And the Activity [8]?
**A.** The Activity was 18.3%.

**Q.** What about the Activity [9] of the same molecule?
**A.** Its Activity is 54.5%.

**Q.** And the Activity [5]?
**A.** Its Activity is 12.5%.

**Q.** With `CO[C@@H]1[C@@H](O)[C@H](O[C@H]2CC[C@@]3(C)[C@@H](CC[C@@H]4[C@@H]3CC[C@]3(C)[C@@H](C(C)=O)[C@H](O)[C@@H](O)[C@]43O)C2)O[C@H](C)[C@H]1O[C@@H]1C[C@@H](O)[C@@H](O[C@@H]2C[C@H](OC)[C@@H](O[C@H]3C[C@@H](OC)[C@H](O[C@@H]4O[C@H](CO)[C@@H](O)[C@H](O)[C@H]4O)[C@@H](C)O3)[C@H](C)O2)[C@H](C)O1` as the molecule, how does the Activity [10] read?
**A.** Its Activity is 14.1%.

**Q.** What about the Activity [2] of the same molecule?
**A.** The Activity was 9.4%.

**Q.** What about the Activity [3] of the same molecule?
**A.** The Activity was “<= 3.8%”.

**Q.** And the Activity [11]?
**A.** The Activity was 42.3%.

**Q.** And the Activity [5]?
**A.** The Activity was 5.3%.
